Assay results published in publication PMC11096781, “Population pharmacokinetics of intravenous daptomycin in critically ill patients: implications for selection of dosage regimens” (Frontiers in Pharmacology, 2024).
Entries after “also recorded” stand apart in the source; their conditions may differ.

Legend:
[1] = Excerpt: Plasma samples were collected from patients who received an intravenous infusion of daptomycin in the intensive care unit (ICU) of Zhongnan Hospital of Wuhan University from April 2021 to December 2022 according to the inclusion and exclusion criteria and the clinical sample sampling protocol for blood drug concentration testing. Patients who fulfilled the following criteria were eligible: ≥18 years old; treated with daptomycin for proven/probable infections caused by Gram-positive organisms that were unresponsive or intolerant to other antimicrobial agents. The exclusion criteria were pregnancy, known or suspected hypersensitivity to daptomycin and its excipients, and incomplete or missing laboratory data before and after treatment.
Daptomycin (Jiangsu Hengrui Medicine Co., Ltd.) dissolved in 100 mL normal saline was administered as a 30-min infusion. The daptomycin dose was 500 mg every 24 h. To obtain a complete blood drug concentration time curve after administration, we took into account the equilibrium phase (near peak concentration) and elimination phase of the drug in the design of sampling time points. On the first day of administration, blood samples were collected at 0, 0.5, 1, 2, 4, 8, 12, and 24 h after infusion. On the third day of administration, blood samples were collected before administration and at 0, 0.5, 1, 2, 4, 8, 12, and 24 h after infusion. On the fifth and seventh days, blood samples were collected before administration and at 0.5 and 4 h after infusion. Blood was drawn and allowed to clot in yellow blood-collecting tubes containing separating glue and a coagulant accelerator. Serum was collected by centrifugation and stored at −80°C until assayed. As soon as the study dose was administered, the participants were monitored for potential side effects. Serious adverse events were defined as adverse events related to daptomycin that required treatment discontinuation.
Serum daptomycin concentrations were measured using a high-performance liquid chromatography-tandem mass spectrometry method developed in our laboratory, the lower limit of quantification was 0.05 μg mL^−1. Briefly, serum samples were analyzed after protein precipitation. Daptomycin-d5 (Beijing Hager Biotechnology Co., Ltd.) was used as an internal standard. A Waters ACQUITY UPLC C8 column (2.1 mm × 50 mm, 1.7 μm) was used for separation. The mobile phase consisted of phase A: water (0.1% formic acid), phase B: 1:1 methanol: acetonitrile (0.1% formic acid) at a flow rate of 0.4 mL min^−1, column temperature of 45°C, injection volume of 2 μL, and analysis time of 4 min. Ion transitions were performed using positive electrospray ionization in the multiple reaction monitoring mode.
Before measurement, the sample was restored to room temperature, 100 μL of 1:1 methanol: acetonitrile was measured into a […] EP tube, then 10 μL of daptomycin-d5 with 40 μL of sample/standard/quality control was added, the sample was vortex shaken for 1 min, centrifuged at high speed for 8 min (14,500 r/min), and the supernatant was placed in a 96-well plate for the assay.
NONMEM (version 8.1; ICON Development Solutions, Hanover, MD, United States) was used to establish a population PK model for daptomycin and to perform Monte Carlo simulations ([Bauer et al., 2007]). The ADAPT-TRAN program was used for pre- and post-processing ([Savic et al., 2009]). This study explored one- and two-compartment models of population PK of daptomycin. The two-compartment, disposition model was parameterised in terms of total clearance (CL), volume of distribution in the central compartment (VC), volume of distribution in the peripheral compartment (VP), and intercompartmental clearance (Q). The first order conditional estimation with inter- and intra-subject variability interaction (FOCE-I) was employed for all model runs. The inter-individual variability (η) was described using lognormal distributions, and a mixed additive and proportional model was chosen for residual variability (Ɛ). […]

[2] = Monitoring of creatinine phosphokinase (CPK) and adverse reactions during treatment; assay type: in vivo, human; details: 64 critically ill patients, 500 mg q24h i.v., during the treatment period
Protocol: Demographic and clinical characteristics of the enrolled patients were also collected from the medical records, including age, sex, weight, diagnosis, comorbidities, outcome, combination of other drugs (including antimicrobials), daily complete blood counts, biochemical test results (including liver and renal function and creatinine phosphokinase (CPK)), and whether CRRT or ECMO therapy was performed. In addition, acute physiology and chronic health evaluation (APACHE) and sequential organ failure assessment (SOFA) scores were calculated for each patient to determine disease severity. The patient’s creatinine clearance (CLCR) was calculated according to the Cockcroft-Gault formula based on serum creatinine at steady state on day 3.
The daptomycin dose was 500 mg every 24 h.

[3] = cited from earlier work
[4] = bootstrap analysis with 1000 samples

Q: For CCCCCCCCCC(=O)N[C@@H](Cc1c[nH]c2ccccc12)C(=O)N[C@H](CC(N)=O)C(=O)N[C@@H](CC(=O)O)C(=O)N[C@@H]1C(=O)NCC(=O)N[C@@H](CCCN)C(=O)N[C@@H](CC(=O)O)C(=O)N[C@H](C)C(=O)N[C@@H](CC(=O)O)C(=O)NCC(=O)N[C@H](CO)C(=O)N[C@@H]([C@H](C)CC(=O)O)C(=O)N[C@@H](CC(=O)c2ccccc2N)C(=O)O[C@@H]1C [daptomycin, Daptomycin], which “Q, bootstrap median” value [1, 4] is on record?
A: The value was 2.086 L/h.

Q: And the “VC, bootstrap median” value [1, 4]?
A: The value was 4.14 L.

Q: What about the “VP, bootstrap median” value [1, 4] of the same compound?
A: The value was 3.527 L.

Q: And the “CL, renal part: coefficient of CCR/54 in the final covariate model” value ([1]; human, in vivo)?
A: Its value is 0.148 L/h.

Q: What about the “CRRT clearance, bootstrap median” value ([1]; human, in vivo) of the same compound?
A: Its value is 0.386 L/h.

Q: And the “NR (no renal clearance), bootstrap median” value ([1]; human, in vivo)?
A: Its value is 0.231 L/h.

Q: And the Q ([1]; human, in vivo)?
A: Its Q is 2.13 ± 0.17 L/h.

Q: And the “R (renal clearance), bootstrap median” value ([1]; human, in vivo)?
A: The value was 0.15.

Q: What about the “R (renal clearance), final model estimate” value ([1]; human, in vivo) of the same compound?
A: The value was 0.152.

Q: And the V1 ([1]; human, in vivo)?
A: Its V1 is 4.20 ± 0.19 L.

Q: What about the V2 ([1]; human, in vivo) of the same compound?
A: The V2 was 3.67 ± 0.25 L.

Q: What about the “non-renal clearance rate (CLNR) of non-CRRT patients” value ([1]; human, in vivo) of the same compound?
A: Its value is 0.23 ± 0.05 L/h.

Q: And the “renal clearance part (CLR), coefficient × (CCR/54)” value ([1]; human, in vivo)?
A: The value was 0.14 ± 0.035.

Q: And the “NR (no renal clearance), final model estimate” value ([1]; human, in vivo, iv)?
A: Its value is 0.229 L/h.

Q: What about the “Q (intercompartmental clearance), final model estimate” value ([1]; human, in vivo, iv) of the same compound?
A: Its value is 2.09 L/h.

Q: And the “VC (volume of distribution in the central compartment), final model estimate” value ([1]; human, in vivo, iv)?
A: Its value is 4.14 L.

Q: And the “VP (volume of distribution in the peripheral compartment), final model estimate” value ([1]; human, in vivo, iv)?
A: Its value is 3.52 L.

Q: What about the clearance ([1]; human, in vivo, iv) of the same compound?
A: The clearance was 6.43 mL/min.

Q: And the “VP of males relative to females” value ([1]; sex as covariate in forward inclusion, not retained in the final model)?
A: Its value is “approximately 1.4 times”.

Q: And the “CPK elevation or other adverse reactions related to daptomycin” value [2]?
A: The value was “No increase in CPK or other adverse reactions; also recorded: no elevation of CPK associated with daptomycin was found”.

Q: And the “metabolism by liver enzymes” value ([3]; ref Dvorchik et al., 2004)?
A: Its value is “not metabolized by liver enzymes”.

Q: And the “eliminated by the kidneys” value ([3]; ref Enoch et al., 2007)?
A: Its value is 78%.

Q: What about the half-life ([3]; ref Hawkey, 2008) of the same compound?
A: Its half-life is “approximately 8 h”.
